Columns and labels:
[1] = target: MAP4K1 (HPK1) (Homo sapiens (Human), UniProt Q92918); assay: MAP4K1 (HPK1) biochemical enzymatic activity, electrophoretic mobility shift (EZReader 2), ATP at APPKM (26 μM)
Outline: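 Enzyme at 0.1-15 nM was incubated with 1.5 μM fluorescent peptide and ATP at the apparent Km (26 μM) in HEPES pH 7.5, MgCl2, DTT and Brij 35. The reaction ran at 25° C for 60-180 min with a 10-point, 4-fold compound series (1% DMSO) and was stopped with EDTA. Substrate and product peptides were resolved by microfluidic mobility shift, and their peak ratio gave activity.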

[2] = test system: expanded CD3+ T cells; assay: T cell enhancement of cytokines: IL2 measurement (HTRF) in expanded CD3+ T cells stimulated with anti-CD3/anti-CD28; format: cell-based, human; conditions: IL-2 measurement
Outline: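 Healthy-donor T cells (95-98% CD3+) expanded 10-14 days with IL2 and CD3/CD28 beads, then cryopreserved. 100K cells/well in X-VIVO 10 serum-free medium were stimulated with plate-bound anti-CD3 plus soluble anti-CD28 with compound at various concentrations for 24 h. Secreted IL2 measured by HTRF after 24 h antibody incubation.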

[3] = Homo sapiens, T-cell, class designation
[4] = Homo sapiens, T-cell, numeric value

Sequence of MAP4K1 (HPK1) (Q92918 whole entry): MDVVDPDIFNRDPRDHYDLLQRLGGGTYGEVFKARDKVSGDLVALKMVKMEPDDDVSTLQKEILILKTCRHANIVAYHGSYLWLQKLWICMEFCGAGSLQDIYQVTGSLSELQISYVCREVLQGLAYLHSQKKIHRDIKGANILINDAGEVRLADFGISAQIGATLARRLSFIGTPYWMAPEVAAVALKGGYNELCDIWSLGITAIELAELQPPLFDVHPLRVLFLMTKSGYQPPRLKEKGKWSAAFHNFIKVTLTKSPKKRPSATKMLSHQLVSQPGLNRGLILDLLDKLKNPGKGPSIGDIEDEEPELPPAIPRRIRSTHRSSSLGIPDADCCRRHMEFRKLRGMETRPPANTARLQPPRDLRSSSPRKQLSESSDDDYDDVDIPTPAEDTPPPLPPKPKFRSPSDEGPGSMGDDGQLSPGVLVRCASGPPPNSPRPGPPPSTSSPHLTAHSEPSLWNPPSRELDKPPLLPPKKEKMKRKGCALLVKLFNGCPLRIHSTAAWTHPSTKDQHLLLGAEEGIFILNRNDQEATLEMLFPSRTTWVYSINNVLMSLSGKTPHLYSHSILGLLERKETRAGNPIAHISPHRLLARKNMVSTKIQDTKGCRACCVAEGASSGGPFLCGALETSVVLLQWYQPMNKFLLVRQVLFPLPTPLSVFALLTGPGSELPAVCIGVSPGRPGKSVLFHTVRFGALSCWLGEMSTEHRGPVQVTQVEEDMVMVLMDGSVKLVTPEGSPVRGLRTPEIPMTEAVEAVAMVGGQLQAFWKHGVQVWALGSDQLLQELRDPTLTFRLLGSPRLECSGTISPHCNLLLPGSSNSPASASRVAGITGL

| IC50 ([1]; class designation) | IC50 ([1]; numeric value) | EC50 ([2]; class designation) | EC50 ([2]; numeric value) | EC50 [2, 3] | EC50 [2, 4] | Compound |
| --- | --- | --- | --- | --- | --- | --- |
| < 0.3 nM | 0.27 nM | < 35 nM | 13.8 nM |  |  | CC[C@H]1c2nc(Nc3cc4c(C(C)(C)N)cnc(OC5CC5)c4cn3)ccc2C(=O)O[C@H]1C [Compound 138] |
| 0.31 to 1 nM | 0.42 nM |  |  | < 35 nM | 21.6 nM | C[C@@H]1OC(=O)c2ccc(Nc3cc4c(C(C)(C)N)cnc(OC5COC5)c4cn3)nc2[C@H]1C [Compound 141] |
| < 0.3 nM | 0.1 nM | < 35 nM | 13.6 nM |  |  | CC[C@@](C)(N)c1cnc(OC2CC2)c2cnc(Nc3ccc4c(n3)[C@@H](C)C(C)(C)OC4=O)cc12 [Compound 156] |
| < 0.3 nM | 0.14 nM | < 35 nM | 21.3 nM |  |  | CC[C@](C)(N)c1cnc(OC2CC2)c2cnc(Nc3ccc4c(n3)C(C)(C)[C@@H](C)OC4=O)cc12 [Compound 157] |
| 0.31 to 1 nM | 0.39 nM |  |  | < 35 nM | 27.4 nM | C[C@@H]1OC(=O)c2ccc(Nc3cc4c(C(C)(C)N)cnc(O[C@H]5CCOC5)c4cn3)nc2[C@H]1C [Compound 159] |
| < 0.3 nM | 0.25 nM |  |  | 35.1 to 45 nM | 40 nM | C[C@@H]1OC(=O)c2ccc(Nc3cc4c(C(C)(C)N)cnc(OCC(C)(F)F)c4cn3)nc2[C@H]1C [Compound 166] |
| < 0.3 nM | 0.15 nM | 35.1 to 45 nM | 41.3 nM |  |  | CC1(C)Cc2nc(Nc3cc4c([C@](C)(N)C5CCC5)cnc(OC5CC5)c4cn3)ccc2C(=O)O1 [Compound 168] |
| < 0.3 nM | 0.07 nM | < 35 nM | 6.8 nM |  |  | C[C@@H]1OC(=O)c2ccc(Nc3cc4c([C@](C)(N)C5CCC5)cnc(OC5CC5)c4cn3)nc2[C@H]1C [Compound 170] |
| 1.1 to 10 nM | 4.47 nM | > 55 nM | 74.8 nM |  |  | CC[C@]1(C)OC(=O)c2ccc(Nc3cc4c(C(C)(C)N)cnc(OCC(F)(F)F)c4cn3)nc21 [Compound 172] |
| 1.1 to 10 nM | 2.9 nM | < 35 nM | 28.2 nM |  |  | CC[C@@]1(C)OC(=O)c2ccc(Nc3cc4c(C(C)(C)N)cnc(OCC(F)(F)F)c4cn3)nc21 [Compound 174] |
| 0.31 to 1 nM | 0.8 nM | < 35 nM | 20.9 nM |  |  | CC(C)(N)c1cnc(OCC(F)(F)F)c2cnc(Nc3ccnc([C@@H]4CCC[C@@H](O)C4)n3)cc12 [Compound 176] |
| < 0.3 nM | 0.29 nM |  |  | > 55 nM | 58.7 nM | C[C@@H]1OC(=O)c2ccc(Nc3cc4c(C(C)(C)N)cnc(OC5CC(F)(F)C5)c4cn3)nc2[C@H]1C [Compound 178] |
| > 10 nM | 26.4 nM |  |  | < 35 nM | 3.1 nM | CC1(C)Cc2nc(Nc3cc4c(C(C)(C)NC5COC5)cnc(OC5CC5)c4cn3)ccc2C(=O)O1 [Compound 183] |
| < 0.3 nM | 0.09 nM | < 35 nM | 6.8 nM |  |  | COC[C@@](C)(N)c1cnc(OC)c2cnc(Nc3ccc4c(n3)[C@@H](C)[C@H](C)OC4=O)cc12 [Compound 188] |
| < 0.3 nM | 0.16 nM | 45.1 to 55 nM | 45.8 nM |  |  | COC[C@@](C)(N)c1cnc(OC2CC2)c2cnc(Nc3ccc4c(n3)[C@@H](C)C(C)(C)OC4=O)cc12 [Compound 189] |
| < 0.3 nM | 0.1 nM | < 35 nM | 19 nM |  |  | CC[C@](C)(N)c1cnc(OC2CC2)c2cnc(Nc3ccc4c(n3)C3(CC3)C(C)(C)OC4=O)cc12 [Compound 196] |
| < 0.3 nM | 0.22 nM | < 35 nM | 29.8 nM |  |  | CC[C@@H](N)c1cnc(OC)c2cnc(Nc3ccc4c(n3)[C@@H](C)C(C)(C)OC4=O)cc12 [Compound 204] |
| 0.31 to 1 nM | 0.35 nM |  |  | > 55 nM | 113 nM | COC[C@@](C)(N)c1cnc(C)c2cnc(Nc3ccc4c(n3)[C@@H](C)[C@H](C)OC4=O)cc12 [Compound 205] |
| 0.31 to 1 nM | 0.7 nM | > 55 nM | 96 nM |  |  | COC[C@@H](N)c1cnc(OC)c2cnc(Nc3ccc4c(n3)[C@@H](C)C(C)(C)OC4=O)cc12 [Compound 208] |
| < 0.3 nM | 0.23 nM | > 55 nM | 177 nM |  |  | CC[C@@H](N)c1cnc(C)c2cnc(Nc3ccc4c(n3)[C@@H](C)C(C)(C)OC4=O)cc12 [Compound 210] |

— patent publication US11534441B2, “MAP4K1 inhibitors” (Blueprint Medicines Corporation, priority 2020, dated 2022)
